What was measured:
Assay in all cases: relative viability (nuclei count vs DMSO), 5 days (fraction); higher = more cells survive
[1] = compound: Cc1ccc(Nc2nccc(N(C)c3ccc4c(C)n(C)nc4c3)n2)cc1S(N)(=O)=O [Pazopanib] + CC1(C)CCC(c2ccc(Cl)cc2)=C(CN2CCN(c3ccc(C(=O)NS(=O)(=O)c4ccc(N[C@H](CCN5CCOCC5)CSc5ccccc5)c(S(=O)(=O)C(F)(F)F)c4)cc3)CC2)C1 [Navitoclax] (partner 0.5 µM)
Summary of the method: (§1)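 Medians of duplicate plates are given as relative viability. That measure is the nuclei count in treated wells divided by the count in vehicle wells. Counts were taken on 4× images of lung cancer cell lines in 1536-well plates, 5 days after pin-tool dosing the day after seeding with one drug alone or a fixed anchor-drug dose plus five library-drug doses (not always all listed) in √10 steps.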

[2] = compound: Cc1ccc(C(=O)Nc2ccc(CN3CCN(C)CC3)c(C(F)(F)F)c2)cc1C#Cc1cnc2cccnn12 [Ponatinib] + Nc1nc2[nH]cc(CCc3ccc(C(=O)N[C@@H](CCC(=O)O)C(=O)O)cc3)c2c(=O)[nH]1 [Pemetrexed] (partner 0.2 µM)
Summary of the method: as §1

[3] = compound: Cc1ccc(C(=O)Nc2ccc(CN3CCN(C)CC3)c(C(F)(F)F)c2)cc1C#Cc1cnc2cccnn12 [Ponatinib] + CC(C)C[C@H](NC(=O)[C@H](Cc1ccccc1)NC(=O)c1cnccn1)B(O)O [Bortezomib] (partner 0.002 µM)
Summary of the method: as §1

[4] = compound: Cc1ccc(Nc2nccc(N(C)c3ccc4c(C)n(C)nc4c3)n2)cc1S(N)(=O)=O [Pazopanib] + Cc1cc(Nc2cc(N3CCN(C)CC3)nc(Sc3ccc(NC(=O)C4CC4)cc3)n2)n[nH]1 [Tozasertib] (partner 0.1 µM)
Summary of the method: as §1

With UMC-11 the relative viability ([1]; first compound 0.01 µM) was 0.318, the relative viability ([1]; first compound 0.03162 µM) was 0.312 and the relative viability ([1]; first compound 0.1 µM) was 0.303. For the same cell line, the relative viability ([1]; first compound 0.3162 µM) was 0.268, the relative viability ([1]; first compound 1 µM) was 0.348 and the relative viability ([2]; first compound 0.002 µM) was 0.794. For the same cell line, the relative viability ([2]; first compound 0.006325 µM) was 0.821, the relative viability ([2]; first compound 0.06325 µM) was 0.862 and the relative viability ([2]; first compound 0.2 µM) was 0.685. For the same cell line, the relative viability ([3]; first compound 0.002 µM) was 0.653, the relative viability ([3]; first compound 0.006325 µM) was 0.769 and the relative viability ([3]; first compound 0.06325 µM) was 0.921. The relative viability ([3]; first compound 0.2 µM) was 0.646, the relative viability ([4]; first compound 0.01 µM) was 0.196 and the relative viability ([4]; first compound 0.03162 µM) was 0.19. For the same cell line, the relative viability ([4]; first compound 0.1 µM) was 0.208, the relative viability ([4]; first compound 0.3162 µM) was 0.206 and the relative viability ([4]; first compound 1 µM) was 0.211.

Reference: the supplement of paper PMC10307832
